Experimental data taken from PMC4917279 (Journal of Medicinal Chemistry, 2016).

Experiments:
Experiment in all cases: KINOMEscan
Type in all cases: binding
PAK1 = biological target: T1, PAK1 (Homo sapiens, UniProt Q13153); settings: read-out: %Ctrl @ 1000 nM
T1 construct: purchased DiscoveRx KINOMEscan

MAPKAPK2 = biological target: T2, MAPKAPK2 (Homo sapiens, UniProt P49137); settings: read-out: %Ctrl @ 1000 nM
T2 construct: purchased DiscoveRx KINOMEscan

NEK5 = biological target: T3, NEK5 (Homo sapiens, UniProt Q6P3R8); settings: read-out: %Ctrl @ 1000 nM
T3 construct: purchased DiscoveRx KINOMEscan

AKT1 = biological target: T4, AKT1 (Homo sapiens, UniProt P31749); settings: read-out: %Ctrl @ 1000 nM
T4 construct: purchased DiscoveRx KINOMEscan

NEK10 = biological target: T5, NEK10 (Homo sapiens, UniProt Q6ZWH5); settings: read-out: %Ctrl @ 1000 nM
T5 construct: purchased DiscoveRx KINOMEscan

EPHB1 = biological target: T6, EPHB1 (Homo sapiens, UniProt P54762); settings: read-out: %Ctrl @ 1000 nM
T6 construct: purchased DiscoveRx KINOMEscan

CAMK2D = biological target: T7, CAMK2D (Homo sapiens, UniProt Q13557); settings: read-out: %Ctrl @ 1000 nM
T7 construct: purchased DiscoveRx KINOMEscan

CDKL5 = biological target: T8, CDKL5 (Homo sapiens, UniProt O76039); settings: read-out: %Ctrl @ 1000 nM
T8 construct: purchased DiscoveRx KINOMEscan

p38-delta = biological target: T9, p38-delta (Homo sapiens, UniProt O15264); settings: read-out: %Ctrl @ 1000 nM
T9 construct: purchased DiscoveRx KINOMEscan

HASPIN = biological target: T10, HASPIN (Homo sapiens, UniProt Q8TF76); settings: read-out: %Ctrl @ 1000 nM
T10 construct: purchased DiscoveRx KINOMEscan

MYLK4 = biological target: T11, MYLK4 (Homo sapiens, UniProt Q86YV6); settings: read-out: %Ctrl @ 1000 nM
T11 construct: purchased DiscoveRx KINOMEscan
T11 sequence (Q86YV6 whole entry): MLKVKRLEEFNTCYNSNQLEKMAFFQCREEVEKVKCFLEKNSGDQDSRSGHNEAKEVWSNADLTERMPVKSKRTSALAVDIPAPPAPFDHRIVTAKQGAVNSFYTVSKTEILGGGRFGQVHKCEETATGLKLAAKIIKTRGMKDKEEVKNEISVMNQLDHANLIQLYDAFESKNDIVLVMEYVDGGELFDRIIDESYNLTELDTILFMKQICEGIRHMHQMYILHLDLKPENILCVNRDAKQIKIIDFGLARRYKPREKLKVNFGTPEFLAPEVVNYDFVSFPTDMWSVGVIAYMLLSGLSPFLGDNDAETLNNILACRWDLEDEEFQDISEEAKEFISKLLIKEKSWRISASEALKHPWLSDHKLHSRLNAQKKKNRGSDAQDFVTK

[1] = biological target: T12, ABL1(H396P)-phosphorylated (Homo sapiens, UniProt P00519, H396P); settings: read-out: %Ctrl @ 1000 nM
T12 construct: purchased DiscoveRx (KINOMEscan service)

[2] = biological target: T13, RSK3(Kin.Dom.1-N-terminal) (Homo sapiens, UniProt Q15349); settings: read-out: %Ctrl @ 1000 nM
T13 construct: RSK3(Kin.Dom.1-N-terminal); purchased DiscoveRx KINOMEscan

SYK = biological target: T14, SYK (Homo sapiens, UniProt P43405); settings: read-out: %Ctrl @ 1000 nM
T14 construct: purchased DiscoveRx KINOMEscan

CDK8 = biological target: T15, CDK8 (Homo sapiens, UniProt P49336); settings: read-out: %Ctrl @ 1000 nM
T15 construct: purchased DiscoveRx KINOMEscan
T15 sequence (P49336 whole entry): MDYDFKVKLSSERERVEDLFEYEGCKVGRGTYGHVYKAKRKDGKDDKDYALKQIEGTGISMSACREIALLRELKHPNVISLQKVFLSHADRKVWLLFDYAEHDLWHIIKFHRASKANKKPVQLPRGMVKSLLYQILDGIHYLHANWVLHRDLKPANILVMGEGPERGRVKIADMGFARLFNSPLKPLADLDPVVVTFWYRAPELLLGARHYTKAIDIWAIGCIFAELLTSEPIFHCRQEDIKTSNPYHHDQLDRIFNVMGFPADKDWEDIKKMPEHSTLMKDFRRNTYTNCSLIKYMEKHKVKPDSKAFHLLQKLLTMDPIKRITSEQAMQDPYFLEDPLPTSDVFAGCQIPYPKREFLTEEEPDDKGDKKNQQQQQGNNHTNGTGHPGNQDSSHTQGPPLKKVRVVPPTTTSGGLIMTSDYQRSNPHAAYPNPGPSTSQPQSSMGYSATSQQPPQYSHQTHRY

WNK3 = biological target: T16, WNK3 (Homo sapiens, UniProt Q9BYP7); settings: read-out: %Ctrl @ 1000 nM
T16 construct: purchased DiscoveRx KINOMEscan

FLT3 = biological target: T17, FLT3 (Homo sapiens, UniProt P36888); settings: read-out: %Ctrl @ 1000 nM
T17 construct: purchased DiscoveRx KINOMEscan

BMPR1A = biological target: T18, BMPR1A (Homo sapiens, UniProt P36894); settings: read-out: %Ctrl @ 1000 nM
T18 construct: purchased DiscoveRx KINOMEscan

EPHB3 = biological target: T19, EPHB3 (Homo sapiens, UniProt P54753); settings: read-out: %Ctrl @ 1000 nM
T19 construct: purchased DiscoveRx KINOMEscan
T19 sequence (P54753 34-998): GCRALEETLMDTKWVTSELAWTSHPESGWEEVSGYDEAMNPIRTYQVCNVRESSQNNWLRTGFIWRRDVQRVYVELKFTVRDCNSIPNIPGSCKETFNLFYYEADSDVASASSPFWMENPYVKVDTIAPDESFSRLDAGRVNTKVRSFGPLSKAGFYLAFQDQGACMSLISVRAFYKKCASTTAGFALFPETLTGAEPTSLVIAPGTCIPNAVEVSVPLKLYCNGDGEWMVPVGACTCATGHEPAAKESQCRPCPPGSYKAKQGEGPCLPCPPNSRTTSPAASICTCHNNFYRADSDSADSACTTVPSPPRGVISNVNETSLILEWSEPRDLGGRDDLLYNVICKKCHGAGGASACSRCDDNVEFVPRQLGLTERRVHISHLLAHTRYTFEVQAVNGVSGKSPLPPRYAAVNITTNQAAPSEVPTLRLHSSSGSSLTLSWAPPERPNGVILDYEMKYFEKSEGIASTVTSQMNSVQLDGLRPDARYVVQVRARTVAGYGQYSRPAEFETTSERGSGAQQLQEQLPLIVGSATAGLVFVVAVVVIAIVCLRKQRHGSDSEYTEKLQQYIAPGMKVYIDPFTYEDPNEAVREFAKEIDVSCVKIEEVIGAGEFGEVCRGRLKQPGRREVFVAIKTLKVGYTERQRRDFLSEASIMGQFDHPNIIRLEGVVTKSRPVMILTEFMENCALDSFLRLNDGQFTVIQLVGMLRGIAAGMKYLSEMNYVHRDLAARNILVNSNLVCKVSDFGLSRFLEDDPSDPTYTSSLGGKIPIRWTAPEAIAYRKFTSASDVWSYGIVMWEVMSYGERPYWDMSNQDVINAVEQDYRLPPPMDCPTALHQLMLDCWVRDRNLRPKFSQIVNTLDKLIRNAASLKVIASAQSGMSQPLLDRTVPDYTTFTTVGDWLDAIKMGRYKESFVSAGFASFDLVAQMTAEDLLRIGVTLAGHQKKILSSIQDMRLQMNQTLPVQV

PRKX = biological target: T20, PRKX (Homo sapiens, UniProt P51817); settings: read-out: %Ctrl @ 1000 nM
T20 construct: purchased DiscoveRx KINOMEscan
T20 sequence (P51817 whole entry): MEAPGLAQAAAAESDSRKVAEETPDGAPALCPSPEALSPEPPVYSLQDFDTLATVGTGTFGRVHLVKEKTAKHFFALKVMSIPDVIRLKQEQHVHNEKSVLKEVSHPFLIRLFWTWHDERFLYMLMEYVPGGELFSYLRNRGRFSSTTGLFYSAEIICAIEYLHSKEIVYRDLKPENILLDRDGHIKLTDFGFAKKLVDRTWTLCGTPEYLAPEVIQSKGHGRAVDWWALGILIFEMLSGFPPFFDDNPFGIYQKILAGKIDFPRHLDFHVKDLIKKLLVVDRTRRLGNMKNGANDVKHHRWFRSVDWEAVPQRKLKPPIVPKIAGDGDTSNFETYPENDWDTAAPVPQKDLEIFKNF

ERBB4 = biological target: T21, ERBB4 (Homo sapiens, UniProt Q15303); settings: read-out: %Ctrl @ 1000 nM
T21 construct: purchased DiscoveRx KINOMEscan
T21 sequence (Q15303 26-1308): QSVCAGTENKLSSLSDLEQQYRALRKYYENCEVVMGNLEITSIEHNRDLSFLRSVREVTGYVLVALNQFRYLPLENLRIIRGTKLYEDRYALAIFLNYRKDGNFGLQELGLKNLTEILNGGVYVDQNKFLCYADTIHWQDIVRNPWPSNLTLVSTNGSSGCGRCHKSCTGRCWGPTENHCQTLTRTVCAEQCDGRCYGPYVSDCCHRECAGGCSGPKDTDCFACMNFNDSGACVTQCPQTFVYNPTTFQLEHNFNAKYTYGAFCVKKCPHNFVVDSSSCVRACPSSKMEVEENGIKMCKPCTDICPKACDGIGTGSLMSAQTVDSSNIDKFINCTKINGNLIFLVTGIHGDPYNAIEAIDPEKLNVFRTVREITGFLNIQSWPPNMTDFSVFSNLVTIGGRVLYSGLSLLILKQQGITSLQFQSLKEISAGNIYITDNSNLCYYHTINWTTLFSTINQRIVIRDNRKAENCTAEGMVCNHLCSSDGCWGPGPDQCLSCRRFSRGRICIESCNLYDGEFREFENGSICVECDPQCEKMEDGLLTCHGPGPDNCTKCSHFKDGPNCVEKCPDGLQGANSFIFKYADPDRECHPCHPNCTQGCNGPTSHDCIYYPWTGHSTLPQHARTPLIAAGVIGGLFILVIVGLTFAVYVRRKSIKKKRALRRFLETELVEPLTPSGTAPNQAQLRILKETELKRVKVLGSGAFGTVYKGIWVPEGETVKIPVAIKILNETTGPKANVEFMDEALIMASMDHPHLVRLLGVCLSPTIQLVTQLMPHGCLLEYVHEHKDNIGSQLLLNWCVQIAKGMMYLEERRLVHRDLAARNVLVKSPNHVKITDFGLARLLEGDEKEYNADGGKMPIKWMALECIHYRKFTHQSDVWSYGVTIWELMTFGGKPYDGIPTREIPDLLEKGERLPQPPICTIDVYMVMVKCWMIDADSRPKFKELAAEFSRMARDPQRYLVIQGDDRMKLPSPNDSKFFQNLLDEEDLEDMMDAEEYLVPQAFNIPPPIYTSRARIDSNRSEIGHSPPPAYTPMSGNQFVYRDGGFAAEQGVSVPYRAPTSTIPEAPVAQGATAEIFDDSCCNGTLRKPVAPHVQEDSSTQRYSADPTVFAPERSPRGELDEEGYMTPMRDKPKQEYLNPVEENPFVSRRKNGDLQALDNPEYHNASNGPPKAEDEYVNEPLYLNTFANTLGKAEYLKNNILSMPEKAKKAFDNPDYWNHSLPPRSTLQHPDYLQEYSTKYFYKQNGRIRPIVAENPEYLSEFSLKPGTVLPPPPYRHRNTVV

FLT3(ITD) = test system: FLT3(ITD)
WEE1 = biological target: T22, WEE1 (Homo sapiens, UniProt P30291); settings: read-out: %Ctrl @ 1000 nM
T22 construct: purchased DiscoveRx KINOMEscan

MKNK1 = biological target: T23, MKNK1 (Homo sapiens, UniProt Q9BUB5); settings: read-out: %Ctrl @ 1000 nM
T23 construct: purchased DiscoveRx KINOMEscan

ACVRL1 = biological target: T24, ACVRL1 (Homo sapiens, UniProt P37023); settings: read-out: %Ctrl @ 1000 nM
T24 construct: purchased DiscoveRx KINOMEscan

PIK3CA(C420R) = biological target: T25, PIK3CA(C420R) (Homo sapiens, UniProt P42336, C420R); settings: read-out: %Ctrl @ 1000 nM
T25 construct: purchased DiscoveRx KINOMEscan

TAOK1 = biological target: T26, TAOK1 (Homo sapiens, UniProt Q7L7X3); settings: read-out: %Ctrl @ 1000 nM
T26 construct: purchased DiscoveRx KINOMEscan

EGFR(G719S) = biological target: T27, EGFR(G719S) (Homo sapiens, UniProt P00533, G719S); settings: read-out: %Ctrl @ 1000 nM
T27 construct: purchased DiscoveRx KINOMEscan

PKN1 = biological target: T28, PKN1 (Homo sapiens, UniProt Q16512); settings: read-out: %Ctrl @ 1000 nM
T28 construct: purchased DiscoveRx KINOMEscan

PIK3CA = biological target: T29, PIK3CA (Homo sapiens, UniProt P42336); settings: read-out: %Ctrl @ 1000 nM
T29 construct: purchased DiscoveRx KINOMEscan

PLK2 = biological target: T30, PLK2 (Homo sapiens, UniProt Q9NYY3); settings: read-out: %Ctrl @ 1000 nM
T30 construct: purchased DiscoveRx KINOMEscan

AMPK-alpha2 = biological target: T31, AMPK-alpha2 (Homo sapiens, UniProt P54646); settings: read-out: %Ctrl @ 1000 nM
T31 construct: purchased DiscoveRx KINOMEscan

EGFR(L861Q) = biological target: T32, EGFR(L861Q) (Homo sapiens, UniProt P00533, L861Q); settings: read-out: %Ctrl @ 1000 nM
T32 construct: purchased DiscoveRx KINOMEscan

ERK3 = biological target: T33, ERK3 (Homo sapiens, UniProt Q16659); settings: read-out: %Ctrl @ 1000 nM
T33 construct: purchased DiscoveRx KINOMEscan

CLK2 = biological target: T34, CLK2 (Homo sapiens, UniProt P49760); settings: read-out: %Ctrl @ 1000 nM
T34 construct: purchased DiscoveRx KINOMEscan

BMPR1B = biological target: T35, BMPR1B (Homo sapiens, UniProt O00238); settings: read-out: %Ctrl @ 1000 nM
T35 construct: purchased DiscoveRx KINOMEscan

S6K1 = biological target: T36, S6K1 (Homo sapiens, UniProt P23443); settings: read-out: %Ctrl @ 1000 nM
T36 construct: purchased DiscoveRx KINOMEscan
T36 sequence (P23443 whole entry): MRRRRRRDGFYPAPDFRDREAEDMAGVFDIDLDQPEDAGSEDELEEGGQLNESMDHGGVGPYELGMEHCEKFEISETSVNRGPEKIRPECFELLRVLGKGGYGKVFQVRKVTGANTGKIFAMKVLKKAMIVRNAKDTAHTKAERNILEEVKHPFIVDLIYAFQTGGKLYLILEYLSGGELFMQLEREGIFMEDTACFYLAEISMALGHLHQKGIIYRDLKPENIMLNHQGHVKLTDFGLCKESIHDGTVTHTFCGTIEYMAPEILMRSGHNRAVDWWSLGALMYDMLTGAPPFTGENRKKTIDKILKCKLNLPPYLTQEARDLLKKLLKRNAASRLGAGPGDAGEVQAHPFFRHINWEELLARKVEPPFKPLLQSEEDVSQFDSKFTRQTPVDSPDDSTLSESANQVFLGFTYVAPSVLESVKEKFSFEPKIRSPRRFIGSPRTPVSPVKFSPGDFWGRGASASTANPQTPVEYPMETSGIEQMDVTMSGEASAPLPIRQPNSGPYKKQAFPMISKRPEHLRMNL

DLK = biological target: T37, DLK (Homo sapiens, UniProt Q12852); settings: read-out: %Ctrl @ 1000 nM
T37 construct: purchased DiscoveRx KINOMEscan

ALK(L1196M) = biological target: T38, ALK(L1196M) (Homo sapiens, UniProt Q9UM73, L1196M); settings: read-out: %Ctrl @ 1000 nM
T38 construct: purchased DiscoveRx KINOMEscan

SRPK2 = biological target: T39, SRPK2 (Homo sapiens, UniProt P78362); settings: read-out: %Ctrl @ 1000 nM
T39 construct: purchased DiscoveRx KINOMEscan

MRCKB = biological target: T40, MRCKB (Homo sapiens, UniProt Q9Y5S2); settings: read-out: %Ctrl @ 1000 nM
T40 construct: purchased DiscoveRx KINOMEscan

STK36 = biological target: T41, STK36 (Homo sapiens, UniProt Q9NRP7); settings: read-out: %Ctrl @ 1000 nM
T41 construct: purchased DiscoveRx KINOMEscan

RAF1 = biological target: T42, RAF1 (Homo sapiens, UniProt P04049); settings: read-out: %Ctrl @ 1000 nM
T42 construct: purchased DiscoveRx KINOMEscan
T42 sequence (P04049 whole entry): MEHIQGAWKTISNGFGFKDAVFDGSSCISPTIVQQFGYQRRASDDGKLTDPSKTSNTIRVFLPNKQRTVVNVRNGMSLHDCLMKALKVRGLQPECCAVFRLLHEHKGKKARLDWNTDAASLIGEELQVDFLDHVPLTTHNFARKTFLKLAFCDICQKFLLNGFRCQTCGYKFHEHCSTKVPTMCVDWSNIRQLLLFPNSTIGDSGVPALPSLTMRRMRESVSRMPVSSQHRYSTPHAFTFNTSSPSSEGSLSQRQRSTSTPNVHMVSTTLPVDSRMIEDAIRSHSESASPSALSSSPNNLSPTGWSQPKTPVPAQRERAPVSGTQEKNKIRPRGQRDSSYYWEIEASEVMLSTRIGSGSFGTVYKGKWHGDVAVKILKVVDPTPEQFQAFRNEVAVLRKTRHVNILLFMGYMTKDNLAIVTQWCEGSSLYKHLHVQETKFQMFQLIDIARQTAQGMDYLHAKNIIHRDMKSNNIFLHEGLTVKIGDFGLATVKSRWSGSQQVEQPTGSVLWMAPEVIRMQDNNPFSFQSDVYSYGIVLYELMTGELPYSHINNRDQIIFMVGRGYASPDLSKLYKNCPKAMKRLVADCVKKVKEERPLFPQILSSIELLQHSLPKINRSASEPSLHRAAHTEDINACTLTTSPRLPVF

TAOK2 = biological target: T43, TAOK2 (Homo sapiens, UniProt Q9UL54); settings: read-out: %Ctrl @ 1000 nM
T43 construct: purchased DiscoveRx KINOMEscan

T2 sequence (P49137 whole entry): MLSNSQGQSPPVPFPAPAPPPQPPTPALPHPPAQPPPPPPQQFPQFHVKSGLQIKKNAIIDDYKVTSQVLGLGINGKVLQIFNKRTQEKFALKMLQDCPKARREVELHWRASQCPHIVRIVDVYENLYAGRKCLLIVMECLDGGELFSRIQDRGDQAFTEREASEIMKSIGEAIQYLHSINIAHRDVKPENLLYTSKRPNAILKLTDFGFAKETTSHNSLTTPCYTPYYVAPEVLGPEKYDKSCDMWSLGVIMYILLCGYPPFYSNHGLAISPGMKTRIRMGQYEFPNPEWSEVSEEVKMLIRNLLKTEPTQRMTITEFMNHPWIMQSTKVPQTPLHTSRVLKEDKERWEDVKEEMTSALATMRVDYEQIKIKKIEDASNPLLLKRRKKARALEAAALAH

CCN(C(=O)CO)[C@H]1CN(/C(=N\C#N)Nc2cccc(OC(F)F)c2)N=C1c1ccc(Cl)c(Cl)c1 [(S)-4]
remaining binding at 1 µM (PAK1): 84% | remaining binding at 1 µM (MAPKAPK2): 91% | remaining binding at 1 µM (NEK5): 85% | remaining binding at 1 µM (AKT1): 84% | remaining binding at 1 µM (NEK10): 100% | remaining binding at 1 µM (EPHB1): 94% | remaining binding at 1 µM (CAMK2D): 96% | remaining binding at 1 µM (CDKL5): 100% | remaining binding at 1 µM (p38-delta): 72% | remaining binding at 1 µM (HASPIN): 100% | remaining binding at 1 µM (MYLK4): 100% | remaining binding at 1 µM [1]: 88% | remaining binding at 1 µM [2]: 91% | remaining binding at 1 µM (SYK): 59% | remaining binding at 1 µM (CDK8): 92% | remaining binding at 1 µM (WNK3): 93% | remaining binding at 1 µM (FLT3): 92% | remaining binding at 1 µM (BMPR1A): 100% | remaining binding at 1 µM (EPHB3): 99% | remaining binding at 1 µM (PRKX): 100% | remaining binding at 1 µM (ERBB4): 93% | %Ctrl @ 1000 nM (FLT3(ITD)): 91% | remaining binding at 1 µM (WEE1): 100% | remaining binding at 1 µM (MKNK1): 100% | remaining binding at 1 µM (ACVRL1): 74% | remaining binding at 1 µM (PIK3CA(C420R)): 76% | remaining binding at 1 µM (TAOK1): 89% | remaining binding at 1 µM (EGFR(G719S)): 78% | remaining binding at 1 µM (PKN1): 61% | remaining binding at 1 µM (PIK3CA): 97% | remaining binding at 1 µM (PLK2): 83% | remaining binding at 1 µM (AMPK-alpha2): 85% | remaining binding at 1 µM (EGFR(L861Q)): 85% | remaining binding at 1 µM (ERK3): 77% | remaining binding at 1 µM (CLK2): 97% | remaining binding at 1 µM (BMPR1B): 100% | remaining binding at 1 µM (S6K1): 87% | remaining binding at 1 µM (DLK): 94% | remaining binding at 1 µM (ALK(L1196M)): 92% | remaining binding at 1 µM (SRPK2): 95% | remaining binding at 1 µM (MRCKB): 100% | remaining binding at 1 µM (STK36): 81% | remaining binding at 1 µM (RAF1): 100% | remaining binding at 1 µM (TAOK2): 91%
